Data: patent EP1094724B1, “USE OF A PHENOL OXIDISING ENZYME IN THE TREATMENT OF TOBACCO” (priority 1998, dated 2000)

Experiments:
[1] = system: Myceliopthora thermophila laccase (MtL); test: MtL treatment of tobacco extract, quantitative HPLC of chlorogenic acid, rutin and scopoletin; format: biochemical; conditions: detection limit CA 2.43, R 1.55, S 0.50 µg/ml
Method: (§1) The content of phenolic compounds is analysed by HPLC according to the procedure described below: • Liquid chromatographic system: E.g. Shimadzu SCL-6B System Controller, and two LC-6A Liquid Chromatograph (pumps) or Waters model 600 E • Injector: Shimadzu SIL 6B Autoinjector or Waters 715 Ultra Wisp. UV detector: Shimadzu SPD-6A Photodiode Array UV-VIS detector or Waters Model 481 • Software: CLASS LC10 / CLASS-MXA or Maxima 820 • Column: Supelcosil™ LC-18 25 cm x 4.6 mm (Supelco, #5-8298) or µ Bondapack C198 stainless steel column, 30 cm x 4 mm i.d., 10 µm particle size. • Guard column: none or Guard-Pak from Waters packed with the same material. • Temperature: Ambient • Mobile phase flow: 1.3 ml/min • Injection volume: 20µl • Wavelength: 350 nm • Eluent: Binary gradient (linear) mixture of A: KH2PO4 (28.4 g in 2000 ml de-mineralised water) and B: methanol (please see table 1 and figure 1). The eluent is filtered through a 0.45 µm filter and degassed before use.
(§2) Prior to HPLC analysis, the samples were filtered through a 0.45 µm filter or smaller, e.g. a sterile Sartorius Minisart 0.45 µm filter (#16555) or a Millipore Millex-GS 0.22 µm (#SBGS 0 25 SB) to remove the haze/precipitate normally formed during enzyme treatment. Normally, no dilution of the extract/sample was made before HPLC analysis.
For quantitative measurements the following standards were made in the extracting solution: Chlorogenic acid: 20 mg/ml; Scopoletin: 1 mg/ml; Rutin: 0.75 mg/ml.
The mixture was intensely aerated during the reaction time.
"Raw tobacco" was extracted according to the procedure described in Example 8. […] After enzyme treatment, bentonite was added at a concentration of 1 g/L at the temperature of the extract after the laccase treatment (50°C) for 10 minutes. The slurry was clarified at a flow rate of 1 L/min using a continuous centrifuge. The enzyme treated and clarified extract was then concentrated 40 fold by means of reverse osmosis and evaporation. The concentrate was then recombined with the "tobacco residue" by spraying back the extract onto the tobacco residue, and finally dried, resulting in "recombined tobacco material".
Samples of tobacco before and after extraction and recombination with the tobacco extract was analysed for nicotine, reducing sugars, total sugars by means of an Auto Analyzer according to the method previously described, and analysed for chlorogenic acid, rutin, and scopoletin by means of HPLC according the method previously described. The tobacco extract before and after MtL and bentonite treatment was analysed for chlorogenic acid, rutin, and scopoletin by means of HPLC according the method previously described.

[2] = system: Myceliopthora thermophila laccase (MtL); test: Laccase MtL treatment of tobacco extract, HPLC analysis of phenolic compounds (peak area); format: biochemical; conditions: for Remaining content (% remaining) (peak area relative to the content in the extract): before drying
Method: as §1, §2
For qualitative and semi-quantitative measurements, each of the standards was dissolved in 96% ethanol, and then mixed in a ratio and at a concentration which was within the range in the tobacco extract. For semi-quantification of the phenolic compounds in the tobacco extract, and as a measure of development in concentration of the various compounds contained in the extract, decrease in peak area relative to the peak area before addition of enzyme was used. As a measure of overall efficiency of the process, degree of reduction in total peak area of all peaks (not only the major ones) in the HPLC chromatogram with retention time Rt>3 min was used (named: "All peaks").
Unless otherwise indicated, the tobacco was extracted at a laboratory scale with water according to the following procedure: 1000 ml demineralised water is heated to 45°C. 30 g tobacco (approx. 25 g d.m.) is added and the mixture stirred by a magnetic bar and occasionally with a stick. After 15 minutes the tobacco residue is separated from the tobacco extract by vacuum filtration (Whatman glass micro fibre GF/F 11 cm). The filtered extract is then vacuum filtered at least once more or until it is completely clear. Yield was around 900 ml tobacco extract. […] No buffer was thus included in any of the trials. D.m. content of the extract was approximately 2.1%.
Tobacco extract (typically 50-100 ml) was poured into a glass beaker and a magnetic bar was added. No pH adjustments were made, and no buffer was added. The tobacco extract was heated to and controlled at 55°C during the entire enzyme treatment by means of a heating plate and a thermostat. Intensive submerse aeration was applied by blowing atmospheric air into the extract by means of a metal sinter (metal suction filter normally used for HPLC). The enzyme in question (TvL or PpL) was added to the desired concentration. Shortly after addition of laccase, the colour of the tobacco extract turned dark brown to black, and with time the liquor became turbid and a precipitate formed. The liquor was sampled with intervals for HPLC analysis.
It is obvious, that MtL can also be used to remove the phenolic compounds. It is evident, that using a dosage of MtL of approximately 0.63 µg/ml, longer processing time is needed compared to using a dosage of 6.3 µg/ml to obtain the same degree of reduction of the phenolic compounds, and that almost complete removal can be obtained with a dosage of approximately 0.63 µg/ml.
Enzyme treatment: MtL enzyme was added at various concentrations in the range 2.5 µg/ml - 6.3 µg/ml. A fixed processing time of 20 minutes was used. […]

[3] = 5 min, 52.0 °C, 4.1 µg/ml MtL, 3.0 kg/100 litre scale
[4] = 5 minutes, 56.2 °C, MtL, 6.0 kg/200 litre scale
[5] = 10 min, 50.3 °C, 4.1 µg/ml MtL, 3.0 kg/100 litre scale
[6] = 10 minutes, 55.8 °C, MtL, 6.0 kg/200 litre scale
[7] = 15 min, 48.8 °C, 4.1 µg/ml MtL, 3.0 kg/100 litre scale
[8] = 15 minutes, 55.2 °C, MtL, 6.0 kg/200 litre scale
[9] = 20 min, 47.4 °C, 4.1 µg/ml MtL, 3.0 kg/100 litre scale
[10] = 20 minutes, 54.5 °C, MtL, 6.0 kg/200 litre scale
[11] = 30 min, 45.0 °C, 4.1 µg/ml MtL, 3.0 kg/100 litre scale
[12] = 30 minutes, 53.5 °C, MtL, 6.0 kg/200 litre scale
[13] = 45 min, 41.9 °C, 4.1 µg/ml MtL, 3.0 kg/100 litre scale
[14] = 45 minutes, 52.2 °C, MtL, 6.0 kg/200 litre scale
[15] = 60 min, 39.1 °C, 4.1 µg/ml MtL, 3.0 kg/100 litre scale
[16] = 60 minutes, 51.0 °C, MtL, 6.0 kg/200 litre scale
[17] = Extract after MtL treatment, 4.1 µg/ml MtL, 20 minutes at 55°C, intense aeration
[18] = Extract after MtL- and bentonite treatment and separation by centrifugation, 4.1 µg/ml MtL 20 minutes at 55°C, bentonite 1 g/L 10 minutes at 50°C

Row | SMILES | Content in tobacco extract during MtL treatment [1, 3] | Content in tobacco extract during MtL treatment [1, 4] | Content in tobacco extract during MtL treatment [1, 5] | Content in tobacco extract during MtL treatment [1, 6] | Content in tobacco extract during MtL treatment [1, 7] | Content in tobacco extract during MtL treatment [1, 8] | Content in tobacco extract during MtL treatment [1, 9] | Content in tobacco extract during MtL treatment [1, 10] | Content in tobacco extract during MtL treatment [1, 11] | Content in tobacco extract during MtL treatment [1, 12] | Content in tobacco extract during MtL treatment [1, 13] | Content in tobacco extract during MtL treatment [1, 14] | Content in tobacco extract during MtL treatment [1, 15] | Content in tobacco extract during MtL treatment [1, 16] | phenolic compound content of tobacco extract [1, 17] | phenolic compound content of tobacco extract [1, 18] | other results
1 | O=C(C=Cc1ccc(O)c(O)c1)OC1CC(O)(C(=O)O)CC(O)C1O (stereo not drawn) [CA, 3-[[3-(3,4-Dihydroxyphenyl)-1-oxo-2-propenyl]oxy]1,4,5-trihydroxycyclohexanecarboxylic acid] | 0.036 mg/mL | 0.0166 mg/mL | BDL | 0.0138 mg/mL | BDL | BDL | BDL | BDL | BDL | BDL | BDL | BDL | BDL | BDL | BDL | BDL | –
2 | COc1cc2ccc(=O)oc2cc1O [S, 7-Hydroxy-6-methoxy-2H-1-benzopyran-2-one] | 0.0063 mg/mL | 0.0101 mg/mL | 0.0027 mg/mL | 0.0090 mg/mL | 0.0014 mg/mL | 0.0078 mg/mL | 0.0010 mg/mL | 0.0054 mg/mL | 0.0010 mg/mL | 0.0043 mg/mL | 0.0010 mg/mL | 0.0020 mg/mL | 0.0010 mg/mL | 0.0019 mg/mL | 0.0047 mg/mL | 0.0017 mg/mL | Residual amount (% remaining) (peak area) ([2]; 0 % pO2, 3.8 µg/ml MtL for 20 minutes at pH 5.4 and 55°C): 100%; Residual amount (% remaining) (peak area) ([2]; 2.5 µg MtL /ml, 20 minutes at pH 5.4 and 55°C, intensive submerse aeration): 97%; Residual amount (% remaining) (peak area) ([2]; 3.8 µg MtL /ml, 20 minutes at pH 5.4 and 55°C, intensive submerse aeration): 69%; Residual amount (% remaining) (peak area) ([2]; 6.3 µg MtL /ml, 20 minutes at pH 5.4 and 55°C, intensive submerse aeration): 52%; Residual amount (% remaining) (peak area) ([2]; 30 % pO2, 3.8 µg/ml MtL for 20 minutes at pH 5.4 and 55°C): 75%; Residual amount (% remaining) (peak area) ([2]; 50 % pO2, 3.8 µg/ml MtL for 20 minutes at pH 5.4 and 55°C): 59%; Residual amount (% remaining) (peak area) ([2]; 90 % pO2, 3.8 µg/ml MtL for 20 minutes at pH 5.4 and 55°C): 45%; % Remaining (peak area) after various treatment times ([2]; 10 min, approx. 6.3 µg/ml MtL at pH 5.4 and 55°C, intensive submerse aeration): 78%; % Remaining (peak area) after various treatment times ([2]; 20 min, approx. 6.3 µg/ml MtL at pH 5.4 and 55°C, intensive submerse aeration): 52%; % Remaining (peak area) after various treatment times ([2]; 67 min, approx. 0.63 µg/ml MtL at pH 5.4 and 55°C, intensive submerse aeration): 90%; % Remaining (peak area) after various treatment times ([2]; 150 min, approx. 0.63 µg/ml MtL at pH 5.4 and 55°C, intensive submerse aeration): 76%; Remaining content (% remaining) (peak area relative to the content in the extract) ([2]; Sample 4 enzyme treated extract after separation from precipitate, approximately 7.5 µg/ml MtL, 30 minutes, 53-56°C, pH 5.5): 47%; Remaining content (% remaining) (peak area relative to the content in the extract) ([2]; Sample 6 enzyme and bentonite treated extract separated from precipitate and bentonite, approximately 7.5 µg/ml MtL 30 minutes, then bentonite 15 minutes at 50-55°C): 44%
